Measured values published in US20170334899A1, “AMINO-SUBSTITUTED ISOTHIAZOLES” (Bayer Pharma Aktiengesellschaft, priority 2014, published 2017).

Each compound was assayed against T1, human kinase Mps-1 (Homo sapiens, UniProt P33981) (assay: Mps-1 kinase assay (TR-FRET)). Conditions: Mps-1 TR-FRET kinase assay; avg; read-out: Mps1 avg (IC50 [mol/l]).
T1 construct: N-terminally GST-tagged human full length recombinant Mps-1 kinase; GST (N); purchased Invitrogen, Karslruhe, Germany PV4071
T1 sequence (P33981 1-857): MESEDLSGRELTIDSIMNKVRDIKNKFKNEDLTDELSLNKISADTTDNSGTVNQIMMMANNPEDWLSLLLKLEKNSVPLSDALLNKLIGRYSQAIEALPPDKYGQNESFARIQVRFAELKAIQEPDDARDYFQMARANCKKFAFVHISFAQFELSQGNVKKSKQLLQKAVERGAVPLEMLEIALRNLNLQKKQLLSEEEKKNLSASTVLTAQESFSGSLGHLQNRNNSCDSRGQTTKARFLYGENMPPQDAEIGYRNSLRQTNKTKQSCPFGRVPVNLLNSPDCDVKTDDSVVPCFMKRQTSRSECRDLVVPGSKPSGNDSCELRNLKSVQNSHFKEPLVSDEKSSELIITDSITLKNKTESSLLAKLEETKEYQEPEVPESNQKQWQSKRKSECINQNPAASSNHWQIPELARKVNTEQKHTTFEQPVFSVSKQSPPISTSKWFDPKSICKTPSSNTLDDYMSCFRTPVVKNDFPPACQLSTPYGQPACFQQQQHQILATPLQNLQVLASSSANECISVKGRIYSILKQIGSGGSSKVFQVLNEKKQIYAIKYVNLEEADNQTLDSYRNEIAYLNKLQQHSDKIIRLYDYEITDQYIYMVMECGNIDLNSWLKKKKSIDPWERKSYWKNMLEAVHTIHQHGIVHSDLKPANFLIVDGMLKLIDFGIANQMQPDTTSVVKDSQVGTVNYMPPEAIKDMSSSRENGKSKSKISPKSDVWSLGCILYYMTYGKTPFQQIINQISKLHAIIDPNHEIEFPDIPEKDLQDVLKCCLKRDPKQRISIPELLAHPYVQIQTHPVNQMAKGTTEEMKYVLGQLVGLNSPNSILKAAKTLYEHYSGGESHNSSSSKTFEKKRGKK
Assay type: biochemical
Method in brief: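 Inhibition normalised between uninhibited reaction (0%) and enzyme-free wells (100%), using the blank-corrected TR-FRET 665/620 nm ratio after EDTA stop. Reaction: ~0.5 nM GST-Mps-1 full length, 10 μM ATP, 1 μM biotin-peptide, 60 min at 22 °C, after 15 min compound pre-binding, pH 7.7.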

IC50 | SMILES
≥ 20 µM | Cc1nsc(Nc2ccc(C#N)cn2)c1C(=O)Nc1ccc(OC2CCN(CCF)CC2)nc1 [Example 29, 5-[(5-Cyanopyridin-2-yl)amino]-N-(6-{[1-(2-fluoroethyl)piperidin-4-yl]oxy}pyridin-3-yl)-3-methyl-1,2-thiazole-4-carboxamide]
≥ 20 µM | Cc1nsc(Nc2cnc(C(F)(F)F)cn2)c1C(=O)Nc1ccc(F)c(OCC2CCCN(CCC(F)(F)F)C2)c1 (stereo not drawn) [Example 338, N-(4-fluoro-3-{[1-(3,3,3-trifluoropropyl)piperidin-3-yl]methoxy}phenyl)-3-methyl-5-{[5-(trifluoromethyl)pyrazin-2-yl]amino}-1,2-thiazole-4-carboxamide]
≥ 20 µM | Cc1nsc(Nc2cc(C#N)ccn2)c1C(=O)Nc1ccc(OC2CCCN(C(=O)OC(C)(C)C)C2)nc1 (stereo not drawn) [Example 34, tert-Butyl 3({5-[({5-[(4-cyanopyridin-2-yl)amino]-3-methyl-1,2-thiazol-4-yl}-carbonyl)amino]pyridin-2-yl}oxy)piperidine-1-carboxylate]
≥ 20 µM | Cc1nsc(Nc2cnc3ccccc3n2)c1C(=O)Nc1ccc(OC2CCCN(C(=O)OC(C)(C)C)C2)nc1 (stereo not drawn) [Example 31, tert-Butyl 3-{[5-({[3-methyl-5-(quinoxalin-2-ylamino)-1,2-thiazol-4-yl]carbonyl}-amino)pyridin-2-yl]oxy}piperidine-1-carboxylate]
≥ 20 µM | Cc1nsc(Nc2cnc3ccccc3n2)c1C(=O)Nc1ccc(OC2CCCN(CC(F)F)C2)nc1 (stereo not drawn) [Example 33, N-(6-{[1-(2,2-Difluoroethyl)piperidin-3-yl]oxy}pyridin-3-yl)-3-methyl-5-(quinoxalin-2-ylamino)-1,2-thiazole-4-carboxamide]
> 20 µM | Cc1nsc(Nc2cnc(C(F)(F)F)cn2)c1C(=O)Nc1ccc(O[C@H]2CCN(CC(F)(F)F)C[C@@H]2F)nc1 [Example 363, N-(6-{[(3S,4S)-3-fluoro-1-(2,2,2-trifluoroethyl)piperidin-4-yl]oxy}pyridin-3-yl)-3-methyl-5-{[5-(trifluoromethyl)pyrazin-2-yl]amino}-1,2-thiazole-4-carboxamide]
≥ 20 µM | Cc1nsc(Nc2cnc(C(F)(F)F)cn2)c1C(=O)Nc1ccc(OCCNCCC(F)(F)F)nc1 [Example 323, 3-methyl-5-{[5-(trifluoromethyl)pyrazin-2-yl]amino}-N-(6-{2-[(3,3,3-trifluoropropyl)amino]ethoxy}pyridin-3-yl)-1,2-thiazole-4-carboxamide]
≥ 20 µM | Cc1nsc(Nc2cnc(C(F)(F)F)cn2)c1C(=O)Nc1ccc(OCC2CCCN(CCF)C2)nc1 (stereo not drawn) [Example 325, N-(6-{[1-(2-fluoroethyl)piperidin-3-yl]methoxy}pyridin-3-yl)-3-methyl-5-{[5-(trifluoromethyl)pyrazin-2-yl]amino}-1,2-thiazole-4-carboxamide]
≥ 20 µM | Cc1nsc(Nc2cnc(C(F)(F)F)cn2)c1C(=O)Nc1ccc(OC2CCN(C(CF)CF)CC2)nc1 [Example 324, N-(6-{[1-(1,3-difluoropropan-2-yl)piperidin-4-yl]oxy}pyridin-3-yl)-3-methyl-5-{[5-(trifluoromethyl)pyrazin-2-yl]amino}-1,2-thiazole-4-carboxamide]
≥ 20 µM | Cc1nsc(Nc2cnc(C(F)(F)F)cn2)c1C(=O)Nc1ccc(OCC2CCCN(CC(F)(F)F)C2)nc1 (stereo not drawn) [Example 326, 3-methyl-N-(6-{[1-(2,2,2-trifluoroethyl)piperidin-3-yl]methoxy}pyridin-3-yl)-5-{[5-(trifluoromethyl)pyrazin-2-yl]amino}-1,2-thiazole-4-carboxamide]
≥ 20 µM | Cc1nsc(Nc2cnc(C(F)(F)F)cn2)c1C(=O)Nc1ccc(F)c(OCC2CCCN(CC(F)(F)F)C2)c1 (stereo not drawn) [Example 337, N-(4-fluoro-3-{[1-(2,2,2-trifluoroethyl)piperidin-3-yl]methoxy}phenyl)-3-methyl-5-{[5-(trifluoromethyl)pyrazin-2-yl]amino}-1,2-thiazole-4-carboxamide]
> 20 µM | CCN1CC[C@H](Oc2ccc(NC(=O)c3c(C)nsc3Nc3cnc(C(F)(F)F)cn3)cn2)[C@@H](F)C1 [Example 365, N-(6-{[(3S,4S)-1-ethyl-3-fluoropiperidin-4-yl]oxy}pyridin-3-yl)-3-methyl-5-{[5-(trifluoromethyl)pyrazin-2-yl]amino}-1,2-thiazole-4-carboxamide]
> 20 µM | Cc1nsc(Nc2cnc(C(F)(F)F)cn2)c1C(=O)Nc1ccc(OCCN(C)CCC(F)(F)F)nc1 [Example 351, 3-methyl-N-(6-{2-[methyl(3,3,3-trifluoropropyl)amino]ethoxy}pyridin-3-yl)-5-{[5-(trifluoromethyl)pyrazin-2-yl]amino}-1,2-thiazole-4-carboxamide]
> 20 µM | Cc1nsc(Nc2cnc(C(F)(F)F)cn2)c1C(=O)Nc1ccc(N2CCN(CC(F)F)CC2)cn1 [Example 372, N-{5-[4-(2,2-difluoroethyl)piperazin-1-yl]pyridin-2-yl}-3-methyl-5-{[5-(trifluoromethyl)pyrazin-2-yl]amino}-1,2-thiazole-4-carboxamide]
> 20 µM | Cc1nsc(Nc2cnc(C(F)(F)F)cn2)c1C(=O)Nc1ccc(OCC2CCN(CCC(F)(F)F)CC2)nc1 [Example 347, 3-methyl-5-{[5-(trifluoromethyl)pyrazin-2-yl]amino}-N-(6-{[1-(3,3,3-trifluoropropyl)piperidin-4-yl]methoxy}pyridin-3-yl)-1,2-thiazole-4-carboxamide]
≥ 20 µM | Cc1nsc(Nc2cnc(C(F)(F)F)cn2)c1C(=O)Nc1ccc(OCC2CCCN(CC(F)F)C2)nc1 (stereo not drawn) [Example 327, N-(6-{[1-(2,2-difluoroethyl)piperidin-3-yl]methoxy}pyridin-3-yl)-3-methyl-5-{[5-(trifluoromethyl)pyrazin-2-yl]amino}-1,2-thiazole-4-carboxamide]
≥ 20 µM | Cc1nsc(Nc2cnc(C(F)(F)F)cn2)c1C(=O)Nc1ccc(O[C@@H]2CCCN(CCC(F)(F)F)C2)nc1 [Example 387, 3-methyl-5-{[5-(trifluoromethyl)pyrazin-2-yl]amino}-N-(6-{[(3R)-1-(3,3,3-trifluoropropyl)piperidin-3-yl]oxy}pyridin-3-yl)-1,2-thiazole-4-carboxamide]
> 20 µM | Cc1nsc(Nc2cnc(C(F)(F)F)cn2)c1C(=O)Nc1ccc(O[C@H]2CCN(CC(F)F)C[C@@H]2F)nc1 [Example 362]
≥ 20 µM | Cc1nsc(Nc2cnc(C(F)(F)F)cn2)c1C(=O)Nc1ccc(OCCCN(C)CC(F)(F)F)nc1 [Example 354, 3-methyl-N-(6-{3-[methyl(2,2,2-trifluoroethyl)amino]propoxy}pyridin-3-yl)-5-{[5-(trifluoromethyl)pyrazin-2-yl]amino}-1,2-thiazole-4-carboxamide]
> 20 µM | Cc1nsc(Nc2cnc(C(F)(F)F)cn2)c1C(=O)Nc1ccc(N2CCN(CC(F)(F)F)CC2)nc1 [Example 360, 3-methyl-N-{6-[4-(2,2,2-trifluoroethyl)piperazin-1-yl]pyridin-3-yl}-5-{[5-(trifluoromethyl)pyrazin-2-yl]amino}-1,2-thiazole-4-carboxamide]
≥ 20 µM | Cc1nsc(Nc2ccc(C#N)cn2)c1C(=O)Nc1ccc(OC2CCN(CC(F)(F)F)CC2)nc1 [Example 30, 5-[(5-Cyanopyridin-2-yl)amino]-3-methyl-N-(6-{[1-(2,2,2-trifluoroethyl)piperidin-4-yl]oxy}pyridin-3-yl)-1,2-thiazole-4-carboxamide]
